In patent US4880812A, “Pyrimidine compounds” (Burroughs Wellcome Co., priority 1986, dated 1989):
Values after ≈ are worked out from the molar mass of the structure shown. Where two headings read alike, the source gives them in different places.

Legend:
[1] = test system: mouse L cells; test: Reversal of Cytotoxic Activity on mouse L cells
[2] = test system: lymphocytic leukemia P388/0; test: Lymphocytic Leukemia P388/0 Test (survival, mice); type: in vivo, CD2-F1 mice
Excerpt: A. Anti-neoplastic Activity Data for Lymohocytic Leukemia P388/0 Test
The tests employed for the evaluation of anti-neoplastic activity of the compounds of the present invention are essentially those used in the Tumor Panel of the Developmental Therapeutics Program, Division of Cancer Treatment, National Cancer Institute, A. Goldin, et al., Methods in Cancer Research, Vol. XVI, p. 165, Academic Press (1979). Some modifications, in dose level and schedule have been made to increase the testing efficiency.
CD2-F1 -mice, of the same sex, weighing within a 3 g range surrounding 20 g, are used for this test. Control and test animals are injected intraperitoneally with a suspension of […] viable P388/0 tumor cells on day 0. In each test, several dose levels which bracket the LD20 of the compound are evaluated; each dose level group contains six animals. The test compound is prepared either in physiologic saline containing 0.05% Tween 80 or distilled water containing 5% dextrose and is administered intraperitoneally on the indicated schedule relative to tumor implant. Doses are on a mg/kg basis according to individual animals' body weights. The day of death for each animal is recorded, the median identified for each group and the percent increase in life span (% ILS) is calculated from the ratio of survival time of treatment to control groups. The criterion for activity is % ILS greater than or equal to 20%.
The compound of the invention included in this test was the compound of Example 1, namely N-[4-[3-(2,4-diamino-1,6-dihydro-6-oxo-5-pyrimidinyl)propylamino]benzoyl]- L-glutamic acid and the results are as follows.

[3] = test system: D98 cells; test: Cell Culture Cytotoxicity Test, D98 cells; type: cell-based; conditions: Homo sapiens; 50 % of control; 70-76 hours of incubation; read-out: Concentration giving 50 % of Control, D-98 Cells
Description: (§1) B. Cell Culture Cytotoxicity Test Data
(§2) The two routine indicator cell lines used are (1.) D98, a twice-cloned derivative of Detroit 98s from American Type Culture Collection (ATCC) strain CCL 18.1, from human sternal bone marrow and (2.) L, a cloned derivative from NCTC 929 (ATCC CCL1,) a C3 H/An from mouse connective tissue. Inoculation densities for L and D98 cells are 1.0 and 1.5×10^5 cells, per cm^2, respectively. Control cells are grown in Eagle's MEM (Earle's salts, 10% horse serum, 100 units/ml potassium penicillin G and 100 μg/ml streptomycin) and should show at least two doublings during the test period. Test plates are seeded with similar quantities of cells and are grown in the same medium with test compounds added. Total "cell counts" are made with an electronic cell counter after 70-76 hours of incubation with one medium change at 20-26 hours. Dose response curves are prepared by plotting percent of control vs. concentration of compound.
(§3) The compounds of the invention included in this test and the results are as follows.

[4] = test system: L cells; test: Cell Culture Cytotoxicity Test, L cells; type: cell-based; conditions: Mus musculus; 50 % of control; 70-76 hours of incubation; read-out: Concentration giving 50 % of Control, L-Cells
Description: as §1, §2, §3

[5] = test system: Spiroplasma citri; test: Activity Against Spiroplasma citri, Sensitivity Test; type: cell-based; conditions: for MIC: Spiroplasma citri, 48 h, 32° C., no color change or two day delay in color change; for activity against the mycoplasma, Spiroplasma citri: in words
Description: D. Data for Activity Against Spiroplasma citri, Sensitivity Test
Frozen broth cultures are diluted to a predetermined titre of 100 color changing units for the test. Organisms are grown in Difco PPLO broth base with added serum, glucose, phenol red, ampicillin, thallium acetate and yeast extract. Incubation is at 32° C. Incubation with varying levels of the test compound in the above medium are performed in well plates and an amount of Spiroplasma citri cells is added that will produce a color change by a fixed time of growth. The lowest concentration of compound that fails to produce a color change or gives a two day delay in color change indicates minimum inhibitory concentration.
The compounds of the invention included in this test and the results are as follows: […]

[6] = test system: Lactobacillus casei; test: activity against Lactobacillus casei; type: cell-based; conditions: in words
[7] = test system: Streptococcus faecium; test: activity against Streptococcus faecium; type: cell-based; conditions: in words
[8] = test system: yellow fever virus; conditions: in words
[9] = colour change on extended exposure to light; type: physicochemical; conditions: white powder
[10] = test system: mouse L cells

Structure (SMILES): NC(=O)c1ncn([C@@H]2O[C@H](COP(=O)(O)O)[C@@H](O)[C@H]2O)c1N [AICAR, 5-aminoimidazole-4-carboxamide ribonucleotide, reference compound]
- reversal of the cytotoxicity of the compound of Example 3 ([1]; rescue agent against Example 3): able to reverse the cytotoxicity

Structure (SMILES): Nc1nc(N)c(CCCNc2ccc(C(=O)N[C@@H](CCC(=O)O)C(=O)O)cc2)c(=O)[nH]1 [Example 1, N-[4-[3-(2,4-diamino-1,6-dihydro-6-oxo-5-pyrimidinyl)propylamino]benzoyl]-L-glutamic acid]
- % Increased Life Span ([2]; 2.5 mg/kg i.p., twice a day, on days 1, 2 and 3): +20%
- % Increased Life Span ([2]; 5 mg/kg i.p., every 4 hours for 3 doses on days 1-4): +22%
- % Increased Life Span ([2]; 5 mg/kg i.p., every hour for 8 doses on days 1 and 3): +60%
- % Increased Life Span ([2]; 5 mg/kg i.p., twice a day, on days 1, 2, and 3): +35%
- % Increased Life Span ([2]; 7.5 mg/kg i.p., twice a day, on days 1, 2 and 3): +40%
- % Increased Life Span ([2]; 10 mg/kg i.p., every 4 hours for 3 doses on days 1-4): +80%
- % Increased Life Span ([2]; 20 mg/kg i.p., every hour for 8 doses on days 1 and 3): +60%
- % Increased Life Span ([2]; 182 mg/kg i.p., day 1, 5, 9): +20%
- IC50 [3]: 110 nM
- IC50 [4]: 88 nM
- MIC [5]: 0.01 µM (≈ 0.00432 µg/mL)
- activity against the mycoplasma, Spiroplasma citri [5]: activity
- activity against Lactobacillus casei [6]: activity
- activity against Streptococcus faecium [7]: activity
- activity against yellow fever virus [8]: some activity
- activity at 0.2 µM ([1]; Mus musculus, read-out: % of Control, compound alone, 2 × 10^-7 M (experiment with Ca leucovorin)): 36%
- activity at 0.2 µM ([1]; Mus musculus, read-out: % of Control, compound alone, 2 × 10^-7 M (experiment with hypoxanthine)): 40%

Structure (SMILES): CN(CCCc1c(N)nc(N)[nH]c1=O)c1ccc(C(=O)N[C@@H](CCC(=O)O)C(=O)O)cc1 [Example 2, N-[4-[3-(2,4-diamino-1,6-dihydro-6-dihydro-6-oxo-5-pyrimidinyl)-N-methylpropylamino]benzoyl]-L-glutamic acid]
- IC50 [3]: 3000 nM
- IC50 [4]: 400 nM
- MIC [5]: 0.1 µM (≈ 0.0446 µg/mL)
- activity against the mycoplasma, Spiroplasma citri [5]: activity

Structure (SMILES): Nc1nc(N)c(CCCN(C=O)c2ccc(C(=O)N[C@@H](CCC(=O)O)C(=O)O)cc2)c(=O)[nH]1 [Example 3, N-[4-[3-(2,4-Diamino-1,6-dihydro-6-oxo-5-pyrimidinyl)-N-formylpropylamino]benzoyl]-L-glutamic acid]
- IC50 [3]: 210 nM
- IC50 [4]: 18 nM
- MIC [5]: 0.1 µM (≈ 0.046 µg/mL)
- activity against the mycoplasma, Spiroplasma citri [5]: activity
- activity against yellow fever virus [8]: some activity
- activity at 0.04 µM ([1]; Mus musculus, read-out: % of Control, compound alone, 4 × 10^-8 M): 37%

Structure (SMILES): Nc1nc(N)c(CCNc2ccc(C(=O)N[C@@H](CCC(=O)O)C(=O)O)cc2)c(=O)[nH]1 [Example 4, N-[4-[2-(2,4-diamino-1,6-dihydro-6-oxo-5-pyrimidinyl)ethylamino]benzoyl]-L-glutamic acid]
- IC50 [3]: 700 nM
- IC50 [4]: 400 nM

Structure (SMILES): CN(CCc1c(N)nc(N)[nH]c1=O)c1ccc(C(=O)N[C@@H](CCC(=O)O)C(=O)O)cc1 [Example 5, N-[4-[2-(2,4-diamino-1,6-dihydro-6-oxo-5-pyrimidinyl)ethyl-N-methylamino]benzoyl]-L-glutamic acid]
- IC50 [3]: 7000 nM
- IC50 [4]: 750 nM
- colour change upon extended exposure to light [9]: became tan upon extended exposure to light

Structure (SMILES): Nc1nc2c(c(=O)[nH]1)N(C=O)C(CNc1ccc(C(=O)N[C@@H](CCC(=O)O)C(=O)O)cc1)CN2 (stereo partly shown) [calcium leucovorin]
- reversal of the cytotoxicity of the compound of Example 1 [10]: able to reverse the cytotoxicity
- reversal of the cytotoxicity of the compound of Example 3 [10]: able to reverse the cytotoxicity

Structure (SMILES): O=c1[nH]cnc2nc[nH]c12 [hypoxanthine]
- reversal of the cytotoxicity of the compound of Example 1 [10]: able to reverse the cytotoxicity
- reversal of the cytotoxicity of the compound of Example 3 [10]: able to reverse the cytotoxicity
